From US12545659B2, “IRAK degraders and uses thereof” (Kymera Therapeutics, Inc., priority 2019, dated 2026)

These compounds were tested against T1, IRAK4 (Homo sapiens, UniProt Q9NWZ3) (assay: IRAK4 MSD Degradation in OCI-LY10). Details: OCI-LY10 cells, 4 hrs incubation, read-out: IRAK4 degradation in OCI-LY10 at 4 hrs: DC50.
T1 construct: endogenous in cells; host or cells: OCI-LY10
T1 sequence (Q9NWZ3 1-460): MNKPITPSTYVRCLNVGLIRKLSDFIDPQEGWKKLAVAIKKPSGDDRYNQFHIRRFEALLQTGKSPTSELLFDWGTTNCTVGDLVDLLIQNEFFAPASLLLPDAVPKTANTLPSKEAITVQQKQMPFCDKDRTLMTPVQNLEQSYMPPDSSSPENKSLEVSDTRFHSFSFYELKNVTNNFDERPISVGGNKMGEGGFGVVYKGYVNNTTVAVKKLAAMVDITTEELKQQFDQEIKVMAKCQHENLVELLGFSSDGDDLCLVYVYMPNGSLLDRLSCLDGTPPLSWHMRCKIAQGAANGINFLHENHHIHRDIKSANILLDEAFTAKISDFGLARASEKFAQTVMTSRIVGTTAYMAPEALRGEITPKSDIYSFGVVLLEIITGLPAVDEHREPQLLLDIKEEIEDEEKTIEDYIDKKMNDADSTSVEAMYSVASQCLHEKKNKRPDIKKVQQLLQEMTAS
Type: cell-based
Procedure, shortened: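 IRAK4 remaining in lysates was read by Meso Scale electrochemiluminescence sandwich (2H9 capture, Y279 plus SULFO-TAG detection). Cells were exposed 4 to 24 h at 37 °C to eight 3-fold dilutions from 1 to 10 μM final top; three-parameter logistic fit gave DC50.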

Structure (SMILES) | DC50
Cc1cccc(C(=O)Nc2cc3cn([C@H]4CC[C@H](CN5CCC6(CC5)CC(CCc5cccc7c5n(C)c(=O)n7C5CCC(=O)NC5=O)C6)CC4)nc3cc2C(C)(C)O)n1 (stereo partly drawn) [I-276] | < 50 nM
Cn1c(=O)n(C2CCC(=O)NC2=O)c2cccc(CCC3CC4(CCN(C[C@H]5CC[C@H](n6cc7cc(NC(=O)c8ccccn8)c(C(F)F)cc7n6)CC5)CC4)C3)c21 (stereo partly drawn) [I-277] | < 50 nM
CN(C[C@H]1CC[C@H](n2cc3cc(NC(=O)c4cccc(C(F)(F)F)n4)c(C(F)F)cc3n2)CC1)C1CCC2(CC1)CC(Cc1cccc3c1n(C)c(=O)n3C1CCC(=O)NC1=O)C2 (stereo partly drawn) [I-278] | 50 to 100 nM
CN(C[C@H]1CC[C@H](n2cc3cc(NC(=O)c4cccc(C(F)(F)F)n4)c(C(C)(C)O)cc3n2)CC1)C1CCN(Cc2ccc3c(c2)C(=O)N(C)C3C2CCC(=O)NC2=O)CC1 (stereo partly drawn) [I-279] | < 50 nM
COc1cc2nn([C@H]3CC[C@H](CN4C[C@H]5C[C@@H]4CN5c4cccc5c4n(C)c(=O)n5C4CCC(=O)NC4=O)CC3)cc2cc1NC(=O)c1cccc(C(F)(F)F)n1 (stereo partly drawn) [I-281] | < 50 nM
Cn1c(=O)n(C2CCC(=O)NC2=O)c2cccc(N3C[C@H]4C[C@@H]3CN4C[C@H]3CC[C@H](n4cc5cc(NC(=O)c6cccc(C(F)(F)F)n6)c(C(C)(C)O)cc5n4)CC3)c21 (stereo partly drawn) [I-282] | < 50 nM
COc1cc2nn([C@H]3CC[C@H](CN(C)C4CCN(c5cccc6c5n(C)c(=O)n6C5CCC(=O)N(C)C5=O)CC4)CC3)cc2cc1NC(=O)c1cccc(C(F)(F)F)n1 (stereo partly drawn) [I-283] | 500 to 1000 nM
COc1cc2nn([C@H]3CC[C@H](CN4C[C@H]5CC[C@@H](C4)N5c4cccc5c4n(C)c(=O)n5C4CCC(=O)NC4=O)CC3)cc2cc1NC(=O)c1cccc(C(F)(F)F)n1 (stereo partly drawn) [I-284] | 50 to 100 nM
Cn1c(=O)n(C2CCC(=O)NC2=O)c2cccc(N3[C@@H]4CC[C@H]3CN(C[C@H]3CC[C@H](n5cc6cc(NC(=O)c7cccc(C(F)(F)F)n7)c(C(C)(C)O)cc6n5)CC3)C4)c21 (stereo partly drawn) [I-285] | 50 to 100 nM
COc1cc2nn([C@H]3CC[C@H](CN4CCC5(CC4)CN(Cc4cccc6c4n(C)c(=O)n6C4CCC(=O)NC4=O)CCO5)CC3)cc2cc1NC(=O)c1cccc(C(F)(F)F)n1 (stereo partly drawn) [I-289] | 50 to 100 nM
COc1cc2nn([C@H]3CC[C@H](C(=O)N(C)C4CCN(Cc5cccc6c5n(C)c(=O)n6C5CCC(=O)NC5=O)CC4)CC3)cc2cc1NC(=O)c1cccc(C(F)(F)F)n1 (stereo partly drawn) [I-293] | 50 to 100 nM
COc1cc2nn([C@H]3CC[C@H](C(=O)N4CCC(c5cccc6c5n(C)c(=O)n6C5CCC(=O)NC5=O)CC4)CC3)cc2cc1NC(=O)c1cccc(C(F)(F)F)n1 (stereo partly drawn) [I-295, N-[2-[4-[4-[1-(2,6-dioxo-3-piperidyl)-3-methyl-2-oxo-benzimidazol-4-yl]piperidine-1-carbonyl]cyclohexyl]-6-methoxy-indazol-5-yl]-6-(trifluoromethyl)pyridine-2-carboxamide] | 50 to 100 nM
Cn1c(=O)n(C2CCC(=O)NC2=O)c2cccc(CCC3CC4(CCN(C[C@H]5CC[C@H](n6cc7cc(NC(=O)c8cnn9cccnc89)c(C(F)F)cc7n6)CC5)CC4)C3)c21 (stereo partly drawn) [I-299] | < 50 nM
Cn1c(=O)n(C2CCC(=O)NC2=O)c2cccc(CCCC3CCN(C[C@H]4CC[C@H](n5cc6cc(NC(=O)c7cccc(C(F)(F)F)n7)c(C(F)F)cc6n5)CC4)CC3)c21 (stereo partly drawn) [I-300] | 50 to 100 nM
CN(CCO[C@H]1C[C@H](Cc2cccc3c2n(C)c(=O)n3C2CCC(=O)NC2=O)C1)C[C@H]1CC[C@H](n2cc3cc(NC(=O)c4cccc(C(F)(F)F)n4)c(C(F)F)cc3n2)CC1 (stereo partly drawn) [I-309] | 50 to 100 nM
CN(C[C@H]1CC[C@H](n2cc3cc(NC(=O)c4cccc(C(F)(F)F)n4)c(C(C)(C)O)cc3n2)CC1)c1cccc2c1n(C)c(=O)n2C1CCC(=O)NC1=O (stereo partly drawn) [I-310, N-[2-[4-[[[1-(2,6-dioxo-3-piperidyl)-3-methyl-2-oxo-benzimidazol-4-yl]-methyl-amino]methyl]cyclohexyl]-6-(1-hydroxy-1-methyl-ethyl)indazol-5-yl]-6-(trifluoromethyl)pyridine-2-carboxamide] | 500 to 1000 nM
Cn1c(=O)n(C2CCC(=O)NC2=O)c2cccc(C3CCN(C[C@H]4CC[C@H](n5cc6cc(NC(=O)c7cnccn7)c(C(C)(C)O)cc6n5)CC4)CC3)c21 (stereo partly drawn) [I-320] | < 50 nM
CN(C[C@H]1CC[C@H](n2cc3cc(NC(=O)c4cccc(C5CC5)n4)c(C(C)(C)O)cc3n2)CC1)C1CCN(Cc2cccc3c2n(C)c(=O)n3C2CCC(=O)NC2=O)CC1 (stereo partly drawn) [I-322] | < 50 nM

Same assay, conditions: OCI-LY10 cells, 24 hrs incubation, read-out: IRAK4 degradation in OCI-LY10 at 24 hrs: DC50

Structure (SMILES) | DC50
COc1cc2nn([C@H]3CC[C@H](CN4CC5(CC(CCNc6cccc7c6C(=O)N(C6CCC(=O)NC6=O)C7=O)C5)C4)CC3)cc2cc1-n1ccc2ccccc2c1=O (stereo partly drawn) [I-286] | 50 to 100 nM
Cn1c2cc(NC(=O)c3cccc(C(F)(F)F)n3)c(C(C)(C)O)cc2nc1[C@H]1CC[C@H](CN2CC3(CC(CCNc4cccc5c4C(=O)N(C4CCC(=O)NC4=O)C5=O)C3)C2)CC1 (stereo partly drawn) [I-287] | 50 to 100 nM
CN(CCCO[C@H]1C[C@H](Nc2cccc3c2C(=O)N(C2CCC(=O)NC2=O)C3=O)C1)C[C@H]1CC[C@H](n2cc3cc(NC(=O)c4cccc(S(F)(F)(F)(F)F)n4)c(C(C)(C)O)cc3n2)CC1 (stereo partly drawn) [I-290] | 50 to 100 nM
CC(C)(O)c1cc2nn([C@H]3CC[C@H](CN4CCC5(CC4)CC(Nc4cccc6c4C(=O)N(C4CCC(=O)NC4=O)C6=O)C5)CC3)cc2cc1NC(=O)c1cccc(S(F)(F)(F)(F)F)n1 (stereo partly drawn) [I-291] | < 50 nM
COc1cc2nc([C@H]3CC[C@H](CN4CC5(CCC(CNc6cccc7c6C(=O)N(C6CCC(=O)NC6=O)C7=O)CC5)C4)CC3)oc2cc1NC(=O)c1cccc(C(C)(F)F)n1 (stereo partly drawn) [I-292] | 50 to 100 nM
CC(C)(O)COc1cc2nn([C@H]3CC[C@H](CN4CC5(CC(CCNc6cccc7c6C(=O)N(C6CCC(=O)NC6=O)C7=O)C5)C4)CC3)cc2cc1NC(=O)c1cccc(C(C)(F)F)n1 (stereo partly drawn) [I-296] | 50 to 100 nM
O=C1CCC(N2C(=O)c3ccc(NCC4CC5(C4)CN(C[C@H]4CC[C@H](n6cc7cc(NC(=O)c8cccc(S(F)(F)(F)(F)F)n8)c(N8CCCCC8)cc7n6)CC4)C5)cc3C2=O)C(=O)N1 (stereo partly drawn) [I-297] | 100 to 500 nM
Cc1cccc(C(=O)Nc2cc3cn([C@H]4CC[C@H](CN5CCC(COCCCNc6cccc7c6C(=O)N(C6CCC(=O)NC6=O)C7=O)CC5)CC4)nc3cc2C(C)(C)O)n1 (stereo partly drawn) [I-304] | < 50 nM
COc1cc2nn([C@H]3CC[C@H](CN4CCC(O[C@H]5C[C@H](Nc6cccc7c6C(=O)N(C6CCC(=O)NC6=O)C7=O)C5)CC4)CC3)cc2cc1NC(=O)c1cccc(C(C)(C)F)n1 (stereo partly drawn) [I-305] | 50 to 100 nM
CN(C[C@H]1CC[C@H](n2cc3cc(NC(=O)c4cccc(C(C)(C)F)n4)c(C(C)(C)O)cc3n2)CC1)[C@H]1CC[C@H](Nc2cccc3c2C(=O)N(C2CCC(=O)NC2=O)C3=O)CC1 (stereo partly drawn) [I-306] | < 50 nM
Cc1nc(C(=O)Nc2cc3cn([C@H]4CC[C@H](CN(C)[C@H]5CC[C@H](CNc6cccc7c6C(=O)N(C6CCC(=O)NC6=O)C7=O)CC5)CC4)nc3cc2C(C)(C)O)ccc1F (stereo partly drawn) [I-308] | 50 to 100 nM
COc1cc2nn([C@H]3CC[C@H](CN4CCC(O[C@H]5CC[C@H](CNc6cccc7c6C(=O)N(C6CCC(=O)NC6=O)C7=O)CC5)CC4)CC3)cc2cc1NC(=O)c1cccc(C(C)(C)F)n1 (stereo partly drawn) [I-311] | 50 to 100 nM
CC(C)(O)c1cc2nn([C@H]3CC[C@H](CN4CCC(O[C@H]5C[C@H](Nc6cccc7c6C(=O)N(C6CCC(=O)NC6=O)C7=O)C5)CC4)CC3)cc2cc1NC(=O)c1cccc(C(F)(F)F)n1 (stereo partly drawn) [I-312] | < 50 nM
CC(C)(O)c1cc2nn([C@H]3CC[C@H](CN4CCC5(CC4)CC(Nc4cccc6c4C(=O)N(C4CCC(=O)NC4=O)C6=O)C5)CC3)cc2cc1NC(=O)c1cccc(C(F)(F)F)n1 (stereo partly drawn) [I-313] | < 50 nM
O=C1CCC(N2C(=O)c3cccc(NCCC4CC5(CCN(C[C@H]6CC[C@H](c7nc8cc(N9CCC(CO)CC9)c(NC(=O)c9cccc(C(F)(F)F)n9)cc8o7)CC6)CC5)C4)c3C2=O)C(=O)N1 (stereo partly drawn) [I-314] | 100 to 500 nM
COc1c(NC(=O)c2cccc(C(C)(C)F)n2)cc2cn([C@H]3CC[C@H](CN4CC5(CC(CCNc6cccc7c6C(=O)N(C6CCC(=O)NC6=O)C7=O)C5)C4)CC3)nc2c1C (stereo partly drawn) [I-315] | 50 to 100 nM
COc1cc2nn([C@H]3CC[C@H](CN4CCC5(CC4)CC(CNc4cccc6c4C(=O)N(C4CCC(=O)NC4=O)C6=O)C5)CC3)cc2cc1NC(=O)c1coc(-c2ccnc(C)c2)n1 (stereo partly drawn) [I-316] | 50 to 100 nM
COc1cc2nn([C@H]3CC[C@H](CN(C)[C@H]4CC[C@@]5(CC4)C[C@@H](CNc4cccc6c4C(=O)N(C4CCC(=O)NC4=O)C6=O)C5)CC3)cc2cc1NC(=O)c1cccc(C(F)(F)F)n1 (stereo partly drawn) [I-317] | 50 to 100 nM
COc1cc2nn([C@H]3CC[C@H](CN(C)[C@H]4CC[C@H](Nc5cccc6c5C(=O)N(C5CCC(=O)NC5=O)C6=O)CC4)CC3)cc2cc1NC(=O)c1cccc(S(F)(F)(F)(F)F)n1 (stereo partly drawn) [I-318] | 50 to 100 nM
C[C@@]1(CN2CCC3(CC2)CC(CCNc2cccc4c2C(=O)N(C2CCC(=O)NC2=O)C4=O)C3)Cc2cc(NC(=O)c3cccc(C(F)(F)F)n3)c(N3CCOCC3)cc2O1 (stereo partly drawn) [I-319, N-((2S)-2-((2-(2-((2-(2,6-dioxopiperidin-3-yl)-1,3-dioxoisoindolin-4-yl)amino)ethyl)-7-azaspiro[3.5]nonan-7-yl)methyl)-2-methyl-6-morpholino-2,3-dihydrobenzofuran-5-yl)-6-(trifluoromethyl)picolinamide] | 500 to 1000 nM
COc1cc2nc([C@H]3CC[C@H](CN4CCC5(CC4)CC(Nc4cccc6c4C(=O)N(C4CCC(=O)NC4=O)C6=O)C5)CC3)oc2cc1NC(=O)c1cnn2cccnc12 (stereo partly drawn) [I-321] | < 50 nM
